The record followed here is PMC4122130 (Journal of neuroscience research, 2012).

This assay deals with α7 nAChR (Homo sapiens, UniProt P36544). Briefly: whole-cell patch clamp, inhibition of […] ACh-evoked currents by […] 4R. The format is cell-based. The following applies: shsy5y cells. Background: The patch-clamp technique gives a direct electrical read-out from membranes.
Chain of α7 nAChR (P36544 23-502): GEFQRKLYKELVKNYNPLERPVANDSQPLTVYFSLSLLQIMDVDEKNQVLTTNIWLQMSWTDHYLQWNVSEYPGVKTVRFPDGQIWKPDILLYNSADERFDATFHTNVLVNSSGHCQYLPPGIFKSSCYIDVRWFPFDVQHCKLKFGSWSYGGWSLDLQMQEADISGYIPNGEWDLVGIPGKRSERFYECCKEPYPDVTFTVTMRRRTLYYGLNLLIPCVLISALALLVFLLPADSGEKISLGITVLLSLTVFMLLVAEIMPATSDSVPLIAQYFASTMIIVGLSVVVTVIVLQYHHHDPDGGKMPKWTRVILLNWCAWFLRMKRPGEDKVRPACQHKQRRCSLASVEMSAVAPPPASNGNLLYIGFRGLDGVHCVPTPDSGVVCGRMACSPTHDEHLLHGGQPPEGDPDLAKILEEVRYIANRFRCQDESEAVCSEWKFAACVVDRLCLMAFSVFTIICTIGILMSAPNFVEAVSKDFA

With `C/C1=C\[C@H](O)C[C@@](C)(O)/C=C/[C@H](C(C)C)CC/C(C)=C/CC1` [4R, (1S,2E,4R,6R,7E,11E)-cembra-2,7,11-triene-4,6-diol], the “% inhibition at 25 μM” value is reported as 82% ± 18% inhibition at 25 μM.
